Source: ChEMBL document CHEMBL1147294, “Plant antimutagenic agents, 5. Isolation and structure of two new isoflavones, fremontin and fremontone from Psorothamnus fremontii” (J Nat Prod, 1989)

Legend:
[1] = system: Salmonella typhimurium; assay: Antimutagenic activity in Salmonella Typhimurium T-98 assessed as inhibition of 2-aminoanthracene-induced mutation at 300 ug/plate; format: functional, Salmonella enterica subsp. enterica serovar Typhimurium
[2] = system: Salmonella typhimurium; assay: Antimutagenic activity in Salmonella Typhimurium assessed as inhibition of 2-aminoanthracene-induced mutation at 0.6 mg/plate; format: functional, Salmonella enterica subsp. enterica serovar Typhimurium
[3] = system: Salmonella typhimurium; assay: Antimutagenic activity in Salmonella Typhimurium T-100 assessed as inhibition of ethyl methanesulfonate-induced mutation at 300 ug/plate; format: functional, Salmonella enterica subsp. enterica serovar Typhimurium
[4] = system: Salmonella typhimurium; assay: Antimutagenic activity in Salmonella Typhimurium T-98 assessed as inhibition of 2-aminoanthracene-induced mutation at 37.5 ug/plate; format: functional, Salmonella enterica subsp. enterica serovar Typhimurium
[5] = system: Salmonella typhimurium; assay: Antimutagenic activity in Salmonella Typhimurium T-100 assessed as inhibition of ethyl methanesulfonate-induced mutation at 37.5 ug/plate; format: functional, Salmonella enterica subsp. enterica serovar Typhimurium
[6] = system: Salmonella typhimurium; assay: Antimutagenic activity in Salmonella Typhimurium T-98 assessed as inhibition of 2-aminoanthracene-induced mutation at 150 ug/plate; format: functional, Salmonella enterica subsp. enterica serovar Typhimurium
[7] = system: Salmonella typhimurium; assay: Antimutagenic activity in Salmonella Typhimurium T-98 assessed as inhibition of acetylaminofluorene-induced mutation at 37.5 ug/plate; format: functional, Salmonella enterica subsp. enterica serovar Typhimurium
[8] = system: Salmonella typhimurium; assay: Antimutagenic activity in Salmonella Typhimurium T-98 assessed as inhibition of acetylaminofluorene-induced mutation at 150 ug/plate; format: functional, Salmonella enterica subsp. enterica serovar Typhimurium
[9] = system: Salmonella typhimurium; assay: Antimutagenic activity in Salmonella Typhimurium assessed as inhibition of 2-aminoanthracene-induced mutation at 0.3 mg/plate; format: functional, Salmonella enterica subsp. enterica serovar Typhimurium
[10] = system: Salmonella typhimurium; assay: Antimutagenic activity in Salmonella Typhimurium T-98 assessed as inhibition of 2-aminoanthracene-induced mutation at 75 ug/plate; format: functional, Salmonella enterica subsp. enterica serovar Typhimurium
[11] = system: Salmonella typhimurium; assay: Antimutagenic activity in Salmonella Typhimurium T-98 assessed as inhibition of acetylaminofluorene-induced mutation at 75 ug/plate; format: functional, Salmonella enterica subsp. enterica serovar Typhimurium
[12] = system: Salmonella typhimurium; assay: Antimutagenic activity in Salmonella Typhimurium T-98 assessed as inhibition of acetylaminofluorene-induced mutation at 300 ug/plate; format: functional, Salmonella enterica subsp. enterica serovar Typhimurium
[13] = system: Salmonella typhimurium; assay: Antimutagenic activity in Salmonella Typhimurium T-100 assessed as inhibition of ethyl methanesulfonate-induced mutation at 150 ug/plate; format: functional, Salmonella enterica subsp. enterica serovar Typhimurium
[14] = system: Salmonella typhimurium; assay: Antimutagenic activity in Salmonella Typhimurium T-100 assessed as inhibition of ethyl methanesulfonate-induced mutation at 75 ug/plate; format: functional, Salmonella enterica subsp. enterica serovar Typhimurium
[15] = system: Salmonella typhimurium; assay: Toxicity to Salmonella Typhimurium at 0.3 to 0.075 mg/plate; format: organism-based, Salmonella enterica subsp. enterica serovar Typhimurium; conditions: in vivo
[16] = system: Salmonella typhimurium; assay: Toxicity to Salmonella Typhimurium at 0.6 mg/plate; format: organism-based, Salmonella enterica subsp. enterica serovar Typhimurium; conditions: in vivo

`C=CC(C)(C)c1cc(-c2coc3cc(O)cc(O)c3c2=O)c(O)cc1O` [FREMONTIN] was tested, and the “inhibition (INH)” value [1] was 93%, the “inhibition (INH)” value [2] was 92% and the “inhibition (INH)” value [3] was 87%. For the same compound, the “inhibition (INH)” value [4] was 65%, the “inhibition (INH)” value [5] was 58% and the “inhibition (INH)” value [6] was 24%. For the same compound, the “inhibition (INH)” value [7] was 0%, the “inhibition (INH)” value [8] was 0% and the “inhibition (INH)” value [9] was 92%. The “inhibition (INH)” value [10] was 0%, the “inhibition (INH)” value [11] was 0% and the “inhibition (INH)” value [12] was 0%. For the same compound, the “inhibition (INH)” value [13] was 81%, the “inhibition (INH)” value [14] was 90% and the Activity [15] was “Non-toxic”.

With `C=CC(C)(C)c1cc(-c2coc3cc(O)cc(O)c3c2=O)c(O)c(CC=C(C)C)c1O` [FREMONTONE] the “inhibition (INH)” value [1] was 93%, the “inhibition (INH)” value [3] was 94% and the “inhibition (INH)” value [4] was 89%. The “inhibition (INH)” value [5] was 63%, the “inhibition (INH)” value [6] was 17% and the “inhibition (INH)” value [7] was 0%. The “inhibition (INH)” value [8] was 27%, the “inhibition (INH)” value [10] was 78% and the “inhibition (INH)” value [11] was 3%. The “inhibition (INH)” value [12] was 70%, the “inhibition (INH)” value [13] was 86% and the “inhibition (INH)” value [14] was 81%. The Activity [16] was “Non-toxic” and the Activity [15] was “Non-toxic”.
